Measured values reported in patent US10610563B2, “Use of ubiquitin-proteasome system inhibitors for treatment of tumors associated with neurofibromatosis type-2” (BIOXCEL CORPORATION, priority 2014, dated 2020).

Tests used:
Caspase 3/7 [1] = test: Caspase 3/7 activity (Caspase-Glo 3/7) in NF2 knockout cell line; details: 18 hrs
Caspase 3/7 [2] = test: Caspase 3/7 activity (Caspase-Glo 3/7) in control haploid cells; details: 18 hrs
in vitro = details: human, wild type haploid (HAP1) cells
[3] = system: wild type haploid (HAP1) cells; test: Cell proliferation/cytotoxicity assay (MTS / CellTitre Blue) in control HAP1 cell line
mesothelioma = test: Treatment of mesothelioma patients carrying mutations in NF2 or BAP1 genes; assay type: in vivo; details: mesothelioma patients with NF2 or BAP1 mutation; 1.3 mg/m^2 intravenous bolus twice in a week, 21-d cycle, up to eight cycles
Excerpt: Mesothelioma patients can be screened for mutation(s) in any of these genes by molecular genetic testing, which is done by the mutation scanning and gene duplication/deletion testing. For example, mutation scanning is done by polymerase chain reaction amplification of the DNA of patients compared to control DNA, and DNA with altered DNA segments may be subjected to the further testing, such as sequence analysis to identify the sequence alterations. Gene duplication/deletion testing is done by quantitative polymerase chain reaction, long-range polymerase chain reaction, multiplex ligation-dependent probe amplification (MLPA), and chromosomal microarray (CMA) that includes the gene/chromosome segment for detection. Molecular genetic testing confirms about the mutation in the NF2 gene or that in the BAP1 gene. […] Bortezomib at a dose of 1.3 mg/m^2 via intravenous bolus for 3 to 5 seconds is given to patients, twice in a week for at least 2 weeks (days 1, 4, 8 and 11) of a 21-d cycle for up to eight cycles.

LATS1 = test: Western blot analysis for LATS1 protein in NF2 knockout cell line; assay type: cell-based; details: 3, 10 & 30 nM at 18 hrs; compared to cells not treated
Experimental: Cells from NF2 knockout cell line 1293-1 cells control Haploid cell line (control wild type cells) are seeded in 6 well plates. […] LATS1 protein was assayed by Western blot (Chemiluminescence) method and both NF2 cell lines are used in the analysis. […] Cell lysates were analysed by western blotting and LATS1 was detected using anti-lats1 antibody (Abcam, ab70561); GAPDH protein levels were assayed using anti-GAPDH antibody as endogenous control. The objective was to quantify the up-regulation/down-regulation of proteins (LATS1) involved in Hippo signaling pathway in NF2 knockout cell line compared to the control cell line. Another objective is to observe the effect of bortezomib treatment in the NF2 knockout cell line, following assays using the Western Blot/WES System.

20S proteasome [4] = molecular target: T1, 20S proteasome (Homo sapiens, UniProt P28074); test: 20S proteasome activity (chymotrypsin-like, Suc-LLVY-AMC) in NF2 knockout cells; assay type: cell-based
Experimental: (§1) The cells were then washed in PBS (Phosphate buffered saline) and lysed in a buffer containing non-ionic detergent and ATP. The cell lysate was centrifuged at 15,000 g for 30 minutes at 4° C. The supernatant was collected, aliquoted and stored at −80° C. until assay. Chymotrypsin-like peptidase activity of 20S proteasome was measured by using 40 μM Succinyl-Leu-Leu-Val-Tyr-AMC (Boston Biochem: S-280), a fluorogenic peptide substrate, along with 12 nM of recombinant PA28α (Boston Biochem: E-381 or R&D Systems Cat. # E-381-100), in an assay buffer containing 20 mM HEPES pH 7.4 and 0.5 mM EDTA. 20S proteasome cleaved the peptide substrate to release the free fluorophore AMC. […] The compound carfilzomib was used as an internal control for the assay (NF2 cells treated with carfilzomib). Similar assay was also performed with the wild type haploid (HAP1) cells for 18 hrs at different bortezomib concentrations ranging from 1 nM to 300 nM (i.e. 1 nM, 3 nM, 10 nM, 30 nM, 100 nM and 300 nM). The reaction was monitored by measuring the fluorescence through Flex Station 3 (Molecular Devices) or Envision (PerkinElmer) (excitation/emission: 353/442 nm), for 1 hour a 37° C. under kinetic setting. Substrate turnover was estimated as a standard curve generated using standard AMC. The results of 20S proteasome assay are described in FIGS. 1, 2, 3, 4 & 5.

[5] = system: NF2 knockout cell line 1293-1; test: Cell proliferation/cytotoxicity assay (MTS / CellTitre Blue) in NF2 knockout cell line
20S proteasome [6] = molecular target: T1, 20S proteasome; test: 20S proteasome activity (chymotrypsin-like, Suc-LLVY-AMC) in wild type haploid (HAP1) cells; assay type: cell-based; details: concentration dependent manner; 18 hrs
Experimental: as §1

[7] = 0.1 nM to 100 nM, 6 hrs and 12 hrs

CN[C@@H]1C[C@H]2O[C@@](C)([C@@H]1OC)n1c3ccccc3c3c4c(c5c6ccccc6n2c5c31)C(=O)NC4 [Staurosporine]
apoptosis in the Caspase 3/7 assay, positive reference control, NF2 knockout cell line (Caspase 3/7 [1]; Staurosporine 1 & 10 μM): induced apoptosis was also observed | apoptosis in the Caspase 3/7 assay, positive reference control, wild type haploid cell line (Caspase 3/7 [2]; Staurosporine 1 & 10 μM): induced apoptosis was also observed

CC(C)C[C@H](NC(=O)[C@H](Cc1ccccc1)NC(=O)c1cnccn1)B(O)O [bortezomib, [(1R)-3-methyl-1-({(2S)-3-phenyl-2[(pyrazin-2-ylcarbonyl)amino]propanoyl}amino)butyl]boronic acid]
caspase activity (apoptosis) in the NF2 knockout cell line (Caspase 3/7 [1]; 3 nM onwards): significant increase in the caspase activity | cytotoxicity at 6 h, 0.1 nM (in vitro): 2.64% | cytotoxicity at 6 h, 0.3 nM (in vitro): 4.7% | cytotoxicity at 6 h, 1 nM (in vitro): 5.65% | cytotoxicity at 6 h, 3 nM (in vitro): 1.58% | cytotoxicity at 6 h, 10 nM (in vitro): 0.99% | cytotoxicity at 6 h, 30 nM (in vitro): 7.63% | cytotoxicity at 6 h, 60 nM (in vitro): 9.63% | cytotoxicity at 6 h, 100 nM (in vitro): 6.08% | cytotoxicity at 12 h, 0.1 nM (in vitro): 3.91% | cytotoxicity at 12 h, 0.3 nM (in vitro): 2.62% | cytotoxicity at 12 h, 1 nM (in vitro): 0.2% | cytotoxicity at 12 h, 3 nM (in vitro): 1.1% | cytotoxicity at 12 h, 10 nM (in vitro): 5.12% | cytotoxicity at 12 h, 30 nM (in vitro): 24.9% | cytotoxicity at 12 h, 60 nM (in vitro): 31.9% | cytotoxicity at 12 h, 100 nM (in vitro): 26.9% | cytotoxicity at 18 h, 0.1 nM (in vitro): 6.83% | cytotoxicity at 18 h, 0.3 nM (in vitro): 6.9% | cytotoxicity at 18 h, 1 nM (in vitro): 5.78% | cytotoxicity at 18 h, 3 nM (in vitro): 7.83% | cytotoxicity at 18 h, 10 nM (in vitro): 7.56% | cytotoxicity at 18 h, 30 nM (in vitro): 26.3% | cytotoxicity at 18 h, 60 nM (in vitro): 31% | cytotoxicity at 18 h, 100 nM (in vitro): 32.7% | cytotoxicity at 24 h, 0.1 nM (in vitro): 11.2% | cytotoxicity at 24 h, 0.3 nM (in vitro): 11.4% | cytotoxicity at 24 h, 1 nM (in vitro): 10.9% | cytotoxicity at 24 h, 3 nM (in vitro): 16.6% | cytotoxicity at 24 h, 10 nM (in vitro): 44.8% | cytotoxicity at 24 h, 30 nM (in vitro): 75% | cytotoxicity at 24 h, 60 nM (in vitro): 77.4% | cytotoxicity at 24 h, 100 nM (in vitro): 78.9% | toxicity in the wild type haploid (HAP1) cell line (in words) ([3]; 6 hrs): did not show any significant toxicity | toxicity in the wild type haploid (HAP1) cell line (in words) ([3]; higher concentration (>30 nM), 12, 18 & 24 hrs): toxicity was observed | delay in tumor progression (mesothelioma): 50% | reduction in tumor size (mesothelioma): 25% | apoptosis/Caspase 3/7 activation in the control haploid cells (Caspase 3/7 [2]; 3 nM onwards, compared to NF2 knockout cell line): minimal increase in apoptosis/Caspase 3/7 activation | levels of LATS1 protein in NF2 knockout cell line (Western blot) (LATS1): increased levels of LATS1 | proteasome activity in the NF2 knockout cell line (dose dependence) (20S proteasome [4]; 1 nM to 300 nM): dose dependent decrease in proteasome activity | proteasome activity in the NF2 knockout cell line (20S proteasome [4]; from 3 nM onwards, post 6 hrs, 12 hrs, 18 hrs and 24 hrs incubation): decreased significantly | comparison of % inhibition in proteasome activity, NF2 knockout cells vs wild type haploid cells (20S proteasome [4]; post 18 hrs incubation (FIG. 5)): greater inhibition in the NF2 knockout cells | cytotoxicity in the NF2 knockout cell line [5, 7]: 10-15% | cytotoxicity in the NF2 knockout cell line (in words) [5, 7]: do not show any significant cytotoxicity | Average % Cytotoxicity in the NF2 knockout cells ([5]; bortezomib 0.1 nM, 6 hrs): −5.18% | Average % Cytotoxicity in the NF2 knockout cells ([5]; bortezomib 0.1 nM, 12 hrs): −21.57% | Average % Cytotoxicity in the NF2 knockout cells ([5]; bortezomib 0.1 nM, 18 hrs): −16.92% | Average % Cytotoxicity in the NF2 knockout cells ([5]; bortezomib 0.1 nM, 24 hrs): −63.43% | Average % Cytotoxicity in the NF2 knockout cells ([5]; bortezomib 0.3 nM, 6 hrs): −5.03% | Average % Cytotoxicity in the NF2 knockout cells ([5]; bortezomib 0.3 nM, 12 hrs): −32.20% | Average % Cytotoxicity in the NF2 knockout cells ([5]; bortezomib 0.3 nM, 18 hrs): −26.59% | Average % Cytotoxicity in the NF2 knockout cells ([5]; bortezomib 0.3 nM, 24 hrs): −71.10% | Average % Cytotoxicity in the NF2 knockout cells ([5]; bortezomib 1 nM, 6 hrs): −1.49% | Average % Cytotoxicity in the NF2 knockout cells ([5]; bortezomib 1 nM, 12 hrs): −28.42% | Average % Cytotoxicity in the NF2 knockout cells ([5]; bortezomib 1 nM, 18 hrs): −25.10% | Average % Cytotoxicity in the NF2 knockout cells ([5]; bortezomib 1 nM, 24 hrs): −66.58% | Average % Cytotoxicity in the NF2 knockout cells ([5]; bortezomib 3 nM, 6 hrs): −0.78% | Average % Cytotoxicity in the NF2 knockout cells ([5]; bortezomib 3 nM, 12 hrs): −24.79% | Average % Cytotoxicity in the NF2 knockout cells ([5]; bortezomib 3 nM, 18 hrs): −19.23% | Average % Cytotoxicity in the NF2 knockout cells ([5]; bortezomib 3 nM, 24 hrs): −68.56% | Average % Cytotoxicity in the NF2 knockout cells ([5]; bortezomib 10 nM, 6 hrs): 8.10% | Average % Cytotoxicity in the NF2 knockout cells ([5]; bortezomib 10 nM, 12 hrs): −11.84% | Average % Cytotoxicity in the NF2 knockout cells ([5]; bortezomib 10 nM, 18 hrs): 14.52% | Average % Cytotoxicity in the NF2 knockout cells ([5]; bortezomib 10 nM, 24 hrs): 29.86% | Average % Cytotoxicity in the NF2 knockout cells ([5]; bortezomib 30 nM, 6 hrs): 14.05% | Average % Cytotoxicity in the NF2 knockout cells ([5]; bortezomib 30 nM, 12 hrs): 17.18% | Average % Cytotoxicity in the NF2 knockout cells ([5]; bortezomib 30 nM, 18 hrs): 35.71% | Average % Cytotoxicity in the NF2 knockout cells ([5]; bortezomib 30 nM, 24 hrs): 37.83% | Average % Cytotoxicity in the NF2 knockout cells ([5]; bortezomib 60 nM, 6 hrs): 16.44% | Average % Cytotoxicity in the NF2 knockout cells ([5]; bortezomib 60 nM, 12 hrs): 16.07% | Average % Cytotoxicity in the NF2 knockout cells ([5]; bortezomib 60 nM, 18 hrs): 38.70% | Average % Cytotoxicity in the NF2 knockout cells ([5]; bortezomib 60 nM, 24 hrs): 43.98% | Average % Cytotoxicity in the NF2 knockout cells ([5]; bortezomib 100 nM, 6 hrs): 10.89% | Average % Cytotoxicity in the NF2 knockout cells ([5]; bortezomib 100 nM, 12 hrs): 15.71% | Average % Cytotoxicity in the NF2 knockout cells ([5]; bortezomib 100 nM, 18 hrs): 39.72% | Average % Cytotoxicity in the NF2 knockout cells ([5]; bortezomib 100 nM, 24 hrs): 45.16% | toxicity in the NF2 knockout cell line (in words) ([5]; higher concentration (>30 nM), 18 hrs and 24 hrs): slight toxicity was observed | proteasome activity in the wild type haploid cell line (20S proteasome [6]): showed inhibition in proteasome activity
